4 compounds from patent US5225571A, “Substituted dihydroxy-bis-[5-hydroxy-2(5H)-furanone-4-yl]-alkanes as anti-inflammatory agents” (Allergan, Inc., priority 1991, dated 1993) can be followed below.

Usually IC50 stands for the point on the concentration scale where inhibition reaches its midpoint.

Like-named read-outs stand apart in the source and are kept apart here.

The target in this assay is bee venom phospholipase A2 (Apis mellifera, UniProt P00630). Nature of the assay: biochemical. The assay is classed as biochemical. As to conditions: read-out: 50% inhibition (IC50) of bee venom phospholipase A2.
Sequence of bee venom phospholipase A2 (P00630 34-167 limits assumed): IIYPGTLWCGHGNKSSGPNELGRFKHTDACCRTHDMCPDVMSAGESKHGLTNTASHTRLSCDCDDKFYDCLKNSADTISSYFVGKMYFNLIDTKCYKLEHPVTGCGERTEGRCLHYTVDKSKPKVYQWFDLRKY

Consider `CC(=O)OC(CCCCCCCCCCCCC(OC(C)=O)C1=CC(=O)OC1O)C1=CC(=O)OC1O` (stereo not shown) [Compound 1, 1,14-Diacetoxy-1,14-bis[5-hydroxy-2(5H)-4-furanoyl]tetradecane], for which, for the setting “pH 7.4”, the half-maximal inhibitory concentration (IC50) was 10 nM.

Turning to `O=C1C=C(C(CCCCCCCCCCC(OC(=O)Nc2ccccc2)C2=CC(=O)OC2O)OC(=O)Nc2ccccc2)C(O)O1` (stereo not shown) [Compound 2, 1,12-Di(N-phenylcarbamoyl)-1,12-bis[5-hydroxy-2(5H)-furano-4-yl] dodecane], the concentration for half-maximal inhibition (IC50) (pH 7.4) worked out at 30 nM.

In the case of `CC(C)(C)C(=O)OC(CCCCCCCCCCCCC(OC(=O)C(C)(C)C)C1=CC(=O)OC1O)C1=CC(=O)OC1O` (stereo not shown) [Compound 3, 1,14-Di(tert-butanoyloxy)-1,14-bis[5-hydroxy-2(5H)-furano-4-yl]tetradecane], the IC50 (pH 7.4) came to 20 nM.

Take `CC(C)(C)C(=O)OC(CCCCCCCCCCCCC(OC(=O)C(C)(C)C)C1=CC(=O)OC1OC(=O)Nc1ccccc1)C1=CC(=O)OC1OC(=O)Nc1ccccc1` (stereo not shown) [Compound 4, 1,14-Di-(tert-butanoyloxy)-1,14-bis[5-(N-phenylcarbamoyl)-2(5H)-furano-4-yl]-tetradecane]: the half-inhibitory concentration (IC50) was > 1000 nM.
